# pIC50: −log10 of the molar value.
# Key:
# [1] = molecular target: T1, unphosphorylated c-KIT kinase (uKIT, Seq. ID no. 2) (Homo sapiens, UniProt P10721); test: uKit kinase assay (ADP production coupled to pyruvate kinase/lactate dehydrogenase); type: biochemical; conditions: enzymatic assay, ATP 2000 μM; read-out: uKIT
# T1 construct: uKit with N-terminal GST fusion used for screening
# Procedure: In this assay, the oxidation of NADH (thus the decrease at A340 nm) was continuously monitored spectrophometrically. […] The inhibition reaction was started by mixing serial diluted test compound with the above reaction mixture. The absorption at 340 nm was monitored continuously for 4 hours at 30° C. on Synergy 2 plate reader (BioTech).
# [2] = molecular target: T2, unphosphorylated PDGFRβ kinase (uPDGFRβ, Seq. ID No. 3) (Homo sapiens, UniProt P09619); test: uPDGFRβ kinase assay (ADP production coupled to pyruvate kinase/lactate dehydrogenase); type: biochemical; conditions: enzymatic assay, ATP 500 μM
# T2 construct: purchased DeCode
# Procedure: Unphosphorylated […]β) Kinase (Seq. ID No. 3) Assay Activity of unphosphorylated PDGFRβ kinase ([…] No. 3) was determined by following the production of ADP from the kinase reaction with ATP and poly E4Y as substrates through coupling with the pyruvate kinase/lactate dehydrogenase system (e.g., Schindler et al. Science (2000) 289: 1938-1942). In this assay, the oxidation of NADH (thus the decrease at A340 nm) was continuously monitored spectrophometrically. The reaction mixture (100 μL) contained PDGFRβ (DeCode, 15.7 nM), polyE4Y (2.5 mg/mL), MgCl2 (10 mM), pyruvate kinase (4 units), lactate dehydrogenase (0.7 units), phosphoenol pyruvate (1 mM) and NADH (0.28 mM) and ATP (500 μM) in a 90 mM Tris buffer containing 0.2% octyl-glucoside and 1% DMSO, at pH 7.5. The inhibition reaction was started by mixing serial diluted test compound with the above reaction mixture. The absorption at 340 nm was monitored continuously for 4 h at 30° C. on a Polarstar Optima or Synergy 2 plate reader. The reaction rate was calculated using the 1.5 to 2.5 h time frame. Percent inhibition was obtained by comparison of reaction rate with that of a control (i.e. with no test compound). IC50 values were calculated from a series of percent inhibition values determined at a range of inhibitor concentrations using software routines as implemented in the GraphPad Prism software package.
# M-NFS-60 cells = test: M-NFS-60 cell proliferation assay (resazurin); type: cell-based; conditions: 67 h incubation
# Procedure: M-NFS-60 cells (catalog #CRL-1838) were obtained from the American Type Culture Collection (ATCC, Manassas, Va.). Briefly, cells were grown in suspension in RPMI 1640 medium supplemented with 10% characterized fetal bovine serum (Invitrogen, Carlsbad, Calif.), 0.05 mM 2-mercaptoethanol, and 20 ng/mL mouse recombinant macrophage colony stimulating factor (M-CSF) at 37° C., 5% CO2, and 95% humidity. Cells were allowed to expand until reaching saturation at which point they were subcultured or harvested for assay use.
# M-NFS-60 Cell Proliferation Assay
# A serial dilution of test compound was dispensed into a 384-well black clear bottom plate (Corning, Corning, N.Y.). Two thousand five hundred cells were added per well in 50 μL complete growth medium. Plates were incubated for 67 h at 37° C., 5% CO2, and 95% humidity. At the end of the incubation period 10 μL of a 440 µM solution of resazurin (Sigma, St. Louis, Mo.) in PBS was added to each well and incubated for an additional 5 h at 37° C., 5% CO2, and 95% humidity. Plates were read on a Synergy2 reader (Biotek, Winooski, Vt.) using an excitation of 540 nm and an emission of 600 nm. IC50 values were calculated from a series of percent inhibition values determined at a range of inhibitor concentrations using software routines as implemented in the GraphPad Prism software package.
# osteoclast precursors = test: Osteoclast tartrate-resistant acid phosphatase assay; type: cell-based; conditions: tartrate-resistant acid phosphatase activity, RANKL and M-CSF, 7-14 days
# Procedure: Osteoclast Tartrate-Resistant Acid Phosphatase Assay
# A serial dilution of test compound was dispensed into a 384-well black clear bottom plate (Nalge Nunc International, Rochester, N.Y.). Compound was diluted by the addition of DMEM media supplemented with 10% characterized fetal bovine serum (Invitrogen, Carlsbad, Calif.). Diluted compound was transferred to a 384-well black clear bottom plate. Two-thousand five hundred osteoclast precursors (Lonza, Walkersville, Md.) were added per well in growth media containing Receptor Activator of Nuclear Factor Kappa-beta ligand (RANKL) and M-CSF (R&D Systems, Minneapolis, Minn.). Plates were incubated for 7-14 days at 37 degrees Celsius, 5% CO2, and 95% humidity to allow differentiation of osteoclast precursors. At the end of the incubation period, 10 μL of supernatant from each well was transferred to a clear 384-well plate. Tartrate-resistant acid phosphatase activity in the supernatant samples was determined using an acid phosphatase assay kit (Sigma, St. Louis, Mo.). Absorbance was measured at 550 nm using a plate reader. Data was analyzed using Prism software (Graphpad, San Diego, Calif.) to calculate IC50 values.
# [3] = molecular target: T3, unphosphorylated c-FMS kinase (uFMS, Seq. ID no. 1) (Homo sapiens, UniProt P07333); test: uFMS kinase assay (ADP production coupled to pyruvate kinase/lactate dehydrogenase); type: biochemical; conditions: enzymatic assay, ATP 500 μM
# T3 construct: purchased Millipore
# T3 sequence (P07333 538-972): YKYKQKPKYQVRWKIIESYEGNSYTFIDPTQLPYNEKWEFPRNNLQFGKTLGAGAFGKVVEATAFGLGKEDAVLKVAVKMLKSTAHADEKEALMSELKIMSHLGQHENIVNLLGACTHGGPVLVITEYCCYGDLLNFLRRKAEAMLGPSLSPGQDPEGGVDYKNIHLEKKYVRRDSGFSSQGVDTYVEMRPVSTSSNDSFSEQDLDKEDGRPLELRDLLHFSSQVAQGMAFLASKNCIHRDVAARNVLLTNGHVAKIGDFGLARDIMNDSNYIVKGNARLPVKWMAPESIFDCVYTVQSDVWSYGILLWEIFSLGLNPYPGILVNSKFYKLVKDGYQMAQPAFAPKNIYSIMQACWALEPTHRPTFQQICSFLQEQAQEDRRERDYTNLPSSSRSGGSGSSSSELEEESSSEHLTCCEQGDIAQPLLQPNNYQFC
# Procedure: uFMS Kinase (Seq. ID No. 1) Assay
# In this assay, the oxidation of NADH (thus the decrease at A340 nm) was continuously monitored spectrophometrically. The reaction mixture (100 μL) contained FMS (purchased from Millipore) (10 nM), polyE4Y (1 mg/mL), MgCl2 (10 mM), pyruvate kinase (4 units), lactate dehydrogenase (0.7 units), phosphoenol pyruvate (1 mM), NADH (0.28 mM) and ATP (500 μM) in 90 mM Tris buffer containing 0.2% octyl-glucoside and 1% DMSO, pH 7.5. The inhibition reaction was started by mixing serial diluted test compound with the above reaction mixture. The absorption at 340 nm was monitored continuously for 4 hours at 30° C. on Synergy 2 plate reader. The reaction rate was calculated using the 3 to 4 h time frame. Percent inhibition was obtained by comparison of reaction rate with that of a control (i.e. in the absence of test compound). IC50 values were calculated from a series of percent inhibition values determined at a range of inhibitor concentrations using software routines as implemented in the GraphPad Prism software package.
# T2 sequence (P09619 557-1106): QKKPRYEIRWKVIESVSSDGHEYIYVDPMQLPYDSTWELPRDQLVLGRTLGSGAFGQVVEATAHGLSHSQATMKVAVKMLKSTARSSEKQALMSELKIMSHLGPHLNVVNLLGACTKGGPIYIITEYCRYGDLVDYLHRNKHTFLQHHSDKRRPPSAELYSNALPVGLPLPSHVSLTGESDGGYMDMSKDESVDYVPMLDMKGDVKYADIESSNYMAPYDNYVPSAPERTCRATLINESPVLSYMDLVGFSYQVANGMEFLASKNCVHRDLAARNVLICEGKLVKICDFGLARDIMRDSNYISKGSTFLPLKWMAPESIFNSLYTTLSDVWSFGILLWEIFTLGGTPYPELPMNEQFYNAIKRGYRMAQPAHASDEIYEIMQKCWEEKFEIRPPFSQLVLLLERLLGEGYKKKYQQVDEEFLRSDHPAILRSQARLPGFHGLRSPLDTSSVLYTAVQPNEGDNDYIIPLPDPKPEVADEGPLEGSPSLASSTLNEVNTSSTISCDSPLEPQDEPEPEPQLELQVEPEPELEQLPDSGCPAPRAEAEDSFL
# T1 sequence (P10721 with tags, fused parts or gaps): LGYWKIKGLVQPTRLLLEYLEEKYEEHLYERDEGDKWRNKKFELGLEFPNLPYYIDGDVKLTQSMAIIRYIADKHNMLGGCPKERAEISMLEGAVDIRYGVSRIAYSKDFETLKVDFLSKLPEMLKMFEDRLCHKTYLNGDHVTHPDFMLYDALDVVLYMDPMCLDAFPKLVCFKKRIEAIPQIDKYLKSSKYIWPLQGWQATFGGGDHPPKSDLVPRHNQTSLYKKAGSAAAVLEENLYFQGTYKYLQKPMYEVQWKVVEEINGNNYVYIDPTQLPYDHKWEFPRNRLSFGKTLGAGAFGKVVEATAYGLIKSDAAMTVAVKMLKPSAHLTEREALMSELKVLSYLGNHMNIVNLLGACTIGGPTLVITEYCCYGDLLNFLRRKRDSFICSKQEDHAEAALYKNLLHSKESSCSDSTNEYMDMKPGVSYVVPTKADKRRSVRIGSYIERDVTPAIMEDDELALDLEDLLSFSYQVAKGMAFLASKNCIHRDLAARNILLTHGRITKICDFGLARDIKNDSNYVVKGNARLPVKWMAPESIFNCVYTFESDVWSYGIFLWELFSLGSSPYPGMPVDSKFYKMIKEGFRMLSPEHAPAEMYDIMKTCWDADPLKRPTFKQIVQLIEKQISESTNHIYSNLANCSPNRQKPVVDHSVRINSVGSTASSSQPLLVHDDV
Compound,pIC50 [3],pIC50 [1],pIC50 [2],pIC50 (M-NFS-60 cells),pIC50 (osteoclast precursors)
"COCCNc1ncc(-c2ccc(Oc3ccnc(-c4cnn(C)c4)c3)c(C)n2)c(=O)[nH]1 [Example 6, 2-((2-methoxyethyl)amino)-5-(6-methyl-5-((2-(1-methyl-1H-pyrazol-4-yl)pyridin-4-yl)oxy)pyridin-2-yl)pyrimidin-4(3H)-one]",,6.00 to 7.00,< 6.00,6.00 to 7.00,7.00 to 8.00
"COCCNc1ncc(-c2ccc(Oc3ccnc(-c4cnn(C)c4)c3)c(C)n2)c(=O)n1C [Example 26, 2-((2-methoxyethyl)amino)-3-methyl-5-(6-methyl-5-((2-(1-methyl-1H-pyrazol-4-yl)pyridin-4-yl)oxy)pyridin-2-yl)pyrimidin-4(3H)-one]",,< 6.00,< 6.00,7.00 to 8.00,7.00 to 8.00
"Cc1nc(-c2cnc(N3CCCC3)n(C)c2=O)ccc1Oc1ccnc(-c2cnn(C)c2)c1 [Example 16, 3-methyl-5-(6-methyl-5-((2-(1-methyl-1H-pyrazol-4-yl)pyridin-4-yl)oxy)pyridin-2-yl)-2-(pyrrolidin-1-yl)pyrimidin-4(3H)-one]",,< 6.00,6.00 to 7.00,> 8.00,> 8.00
"Cc1nc(-c2cnc(NC3CC3)[nH]c2=O)ccc1Oc1ccnc(-c2cnn(C)c2)c1 [Example 14, 2-(cyclopropylamino)-5-(6-methyl-5-((2-(1-methyl-1H-pyrazol-4-yl)pyridin-4-yl)oxy)pyridin-2-yl)pyrimidin-4(3H)-one]",,< 6.00,< 6.00,,7.00 to 8.00
"CNc1ncc(-c2ccc(Oc3ccnc(-c4cnn(C)c4)c3)c(C)n2)c(=O)[nH]1 [Example 7, 5-(6-methyl-5-((2-(1-methyl-1H-pyrazol-4-yl)pyridin-4-yl)oxy)pyridin-2-yl)-2-(methylamino)pyrimidin-4(3H)-one]",,6.00 to 7.00,< 6.00,,6.00 to 7.00
"CCn1cc(-c2cc(Oc3ccc(-c4cnc(NC(C)C)[nH]c4=O)nc3C)ccn2)cn1 [Example 21, 5-(5-((2-(1-ethyl-1H-pyrazol-4-yl)pyridin-4-yl)oxy)-6-methylpyridin-2-yl)-2-(isopropylamino)pyrimidin-4(3H)-one]",,< 6.00,< 6.00,,7.00 to 8.00
"Cc1nc(-c2cnc(NC3CC3)n(C)c2=O)ccc1Oc1ccnc(-c2cnn(C)c2)c1 [Example 17, 2-(cyclopropylamino)-3-methyl-5-(6-methyl-5-((2-(1-methyl-1H-pyrazol-4-yl)pyridin-4-yl)oxy)pyridin-2-yl)pyrimidin-4(3H)-one]",,< 6.00,< 6.00,,> 8.00
"Cc1cc(-c2cnc(NC(C)C)[nH]c2=O)ncc1Oc1ccnc(-c2cnn(C)c2)c1 [Example 18, 2-(isopropylamino)-5-(4-methyl-5-((2-(1-methyl-1H-pyrazol-4-yl)pyridin-4-yl)oxy)pyridin-2-yl)pyrimidin-4(3H)-one]",,7.00 to 8.00,7.00 to 8.00,> 8.00,> 8.00
"Cc1nc(-c2cnc(NC(C)C)[nH]c2=O)ccc1Oc1ccnc(-c2cnn(C)c2)c1 [Example 3, 2-(isopropylamino)-5-(6-methyl-5-((2-(1-methyl-1H-pyrazol-4-yl)pyridin-4-yl)oxy)pyridin-2-yl)pyrimidin-4(3H)-one]",,6.00 to 7.00,< 6.00,,7.00 to 8.00
"CCNc1ncc(-c2ccc(Oc3ccnc(-c4ccc(C)nc4)c3)c(C)n2)c(=O)[nH]1 [Example 4, 2-(ethylamino)-5-(6-methyl-5-((6′-methyl-[2,3′-bipyridin]-4-yl)oxy)pyridin-2-yl)pyrimidin-4(3H)-one]",,< 6.00,< 6.00,,6.00 to 7.00

# Second part, led by results:
pIC50 [3],Compound,pIC50 [1],pIC50 [2],pIC50 (M-NFS-60 cells),pIC50 (osteoclast precursors)
7.00 to 8.00,"COC[C@H]1CCCN1c1ncc(-c2ccc(Oc3ccnc(-c4cnn(C)c4)c3)c(C)n2)c(=O)[nH]1 [Example 23, (R)-2-(2-(methoxymethyl)pyrrolidin-1-yl)-5-(6-methyl-5-((2-(1-methyl-1H-pyrazol-4-yl)pyridin-4-yl)oxy)pyridin-2-yl)pyrimidin-4(3H)-one]",< 6.00,< 6.00,7.00 to 8.00,7.00 to 8.00
6.00 to 7.00,"Cc1nc(-c2cnc(N3CC[C@H](N(C)C)C3)[nH]c2=O)ccc1Oc1ccnc(-c2cnn(C)c2)c1 [Example 24, (S)-2-(3-(dimethylamino)pyrrolidin-1-yl)-5-(6-methyl-5-((2-(1-methyl-1H-pyrazol-4-yl)pyridin-4-yl)oxy)pyridin-2-yl)pyrimidin-4(3H)-one]",< 6.00,< 6.00,6.00 to 7.00,6.00 to 7.00

# Reference: US9181223B2, “2-aminopyrimidin-6-ones and analogs exhibiting anti-cancer and anti-proliferative activities” (Deciphera Pharmaceuticals, LLC, priority 2013, dated 2015)
